From patent US20240400604A1, “NUCLEOSIDE TRIPHOSPHATE PHOTOAFFINITY PROBE, METHOD FOR PREPARING SAME, AND APPLICATIONS THEREOF” (SHANDONG UNIVERSITY, priority 2023, published 2024)

Assays:
[1] = test system: ATP-binding proteins in HEK 293T cell lysates; test: In-gel fluorescence imaging of HEK 293T cell lysates labeled with the ATP-N probe; settings: 10 μM ATP-N probe, FIG. 23c
[2] = test system: GTP-binding proteins in HEK 293T cell lysates; test: In-gel fluorescence imaging of HEK 293T cell lysate labeled with the GTP probes; settings: competitor incubated on ice 10 minutes before probe; 50 μM GTP-O probe (FIG. 11)
Protocol: Appropriate amount cells were incubated on ice for 30 min in 1% lysis buffer (1% Triton X-100, 50 mM HEPES (pH 7.4), 150 mM NaCl, supplemented with phosphatase inhibitor A, phosphatase inhibitor B, and protease inhibitor right before use) at 5-10 times the cell volume. Vortexing for 5 seconds every 10 minutes. The cell lysates were centrifuged at 12,000 rpm at 4° C. for 30 min, and the supernatants were passed through an Amersham NAP-5 column to remove endogenous nucleosides. The proteins were quantified using a Bradford protein assay kit. Approximately 100 μg protein was diluted with 0.1% lysis buffer (0.1% Triton X-100, 50 mM HEPES, 150 mM sodium chloride). To the solution was added 1 mM magnesium chloride, the GTP probe and competitors to designated concentrations. The final volume for the reaction was 100 μL and the final protein concentration was […]. After incubated on ice, the solution was irradiated with 365-nm UV light for 30 min. To the solution were added freshly prepared tris-(2-carboxyethyl)phosphine (TCEP) until its concentration reached 1 mM, and a CuAAC reaction mixture to reach a final concentration of 1 mM CuSO4, 0.1 mM tris[(1-benzyl-1H-1,2,3-triazol-4-yl)methyl]amine (TBTA), and 0.1 mM rhodamine β-PEG3-azide. The mixture was incubated at room temperature for 2 hrs and then precipitated in a solution of chloroform: methanol: water (4:3:1, v/v). After washing with cold methanol and air dried, the protein pellet was dissolved in 30 μL 4% SDS buffer (4% SDS, 50 mM HEPES (pH 7.4), 150 mM NaCl, 50 mM Trolamine). The protein concentration was determined using a BCA protein assay kit. A solution of approximately 20 μg proteins was added 4×loading buffer (0.25M Trometamol, pH=6.8, 4% SDS, 40% Glycerol, 0.02% bromophenol blue, add 200 μL 2-Mercaptoethanol to 800 μL buffer right before use), boiled at 95° C. for 5 min and loaded onto an SDS-PAGE gel (4% stacking gel, 10% separating gel). Then perform SDS-PAGE separation at a constant voltage of 90 V for about 110 minutes. At the end of electrophoresis, cut the separation gel and imaged with an Amersham Imager 600 (GE Healthcare) at 520 nm. The gel was then stained with Coomassie Brilliant Blue staining solution (0.1% Coomassie brilliant blue, 10% acetic acid, 50% methanol) for 30 min and destained with destaining solution (10% acetic acid, 30% methanol) to remove background color.

[3] = test system: GTP-binding proteins in HEK 293T cell lysates; test: Proteomic LC-MS/MS analysis of HEK 293T cell lysate labeled with GTP probes; parameters: species or system human
Protocol: Under optimized conditions, HEK 293T cell lysates were labeled using the GTP photoaffinity probes. Peptide samples were prepared via the On-Beads enzymatic digestion method for proteomic study. Approximately 1 mg of proteins was labeled with 0.1 mM GTP probe and irradiated with 365-nm UV light for 30 min. To the solution were added freshly prepared tris-(2-carboxyethyl)phosphine (TCEP) until its concentration reached 1 mM, and a CuAAC reaction mixture to reach a final concentration of 1 mM CuSO4, 0.1 mM tris[(1-benzyl-1H-1,2,3-triazol-4-yl)methyl]amine (TBTA), and 0.5 mM biotin-PEG3-azide (for GTP-O probe labeled samples), or 0.5 mM biotin-DADPS-azide (for GTP-N probe labeled samples). The mixture was vortexed at room temperature for 2 hours and then precipitated in ice-cold methanol overnight.
The precipitated proteins were dissolved in 100 μL 4% SDS buffer (4% SDS, 150 mM NaCl, 50 mM HEPES, pH=7.4), and diluted with 900 μL SDS-free HEPES buffer (150 mM NaCl, 50 mM HEPES, pH=7.4). High-capacity streptavidin beads (50 μL per sample) were washed three times with 20 times volume of wash buffer (150 mM sodium chloride, 50 mM HEPES, pH=7.4) before adding to the samples. After incubation on a rotary shaker at room temperature for 2 hours, non-specifically bound proteins were washed away in a centrifugal filtration column using 1× PBS containing 1% SDS, 10× PBS, 1× PBS, water, and 50 mM ammonium bicarbonate solution with 8 M urea, each wash using 1 mL of solution for five times. The beads were transferred to a centrifuge tube using 50 mM ammonium bicarbonate solution containing 8 M urea and resuspended with 500 μL of this solution. The disulfide bonds were reduced by adding 20 mM TCEP and incubating at 37° C. for 1 hour, and then alkylated with 50 mM iodacetamide at room temperature in the dark for 30 minutes. After centrifugation at 3000 rpm for 2 minutes, the supernatant was gently removed. The beads were washed with 25 mM ammonium bicarbonate three times, resuspended in 100 μL 25 mM ammonium bicarbonate, and incubated with 1 μg of MS-grade trypsin (1 μg/μL) at 37° C. for 18 hrs.
The beads were washed with 200 μL of 25 mM ammonium bicarbonate solution, then centrifuged at 12000 rpm for 2 minutes to collect the supernatant. The procedure was repeated 6 times, and the supernatants were combined to obtain sample 1 (peptides without probe modification). For GTP-O probe labeled samples, the beads were resuspended in 200 μL of 70% acetonitrile solution containing 1% trifluoroacetic acid, vortexed for 5 minutes, then centrifuged at 12000 rpm for 2 minutes to collect the supernatant. The procedure was repeated 5 times, and the supernatants were combined to obtain sample 2 (containing probe-modified peptides). For GTP-N probe labeled samples, the beads were resuspended in 100 μL of 10% formic acid, incubated on a rotary shaker at room temperature for 30 minutes, then centrifuged at 12000 rpm for 2 minutes to collect the supernatant. The procedure was repeated 3 times, and the supernatants were combined. Trifluoroacetic acid was added to a final concentration of 1%, and incubated at 37° C. for 30 minutes to obtain sample 2. The peptide solutions were dried with a centrifugal concentrator and desalted using C18 tips, then frozen at −80° C. until LC-MS/MS detection. Samples were dissolved in 20 μL of pure water, 4 μL of sample 1 and 8 μL of sample 2 were injected for analysis.
An EASY-nLC 1200 liquid chromatography coupled with a Q-Exactive Orbitrap mass spectrometer was employed for LC-MS/MS analysis. A homemade C18 capillary column (inner diameter 75 μm, column length 18 cm) packed with Reprosil-Pur120 C18-AQ (Dr. maisch, particle size […]) was utilized as the separation column. The precolumn (inner diameter 150 μm, column length 4 cm) was packed with Reprosil-Pur120 C18-AQ (Dr. maisch, particle size 5 μm,). The mobile phase A was 0.1% formic acid, while mobile phase B was 0.1% formic acid in 80% acetonitrile, and the flow rate was 300 nL/min. […]

[4] = three biological replicates, 0.1 mM probe, control probe = GTP-ctrl probe

SMILES: Nc1ncnc2c1ncn2[C@@H]1O[C@H](COP(=O)(O)O)[C@@H](O)[C@H]1O [AMP, reference compound]
- competition effect on ATP-N probe labeling [1]: not significant

SMILES: Nc1ncnc2c1ncn2[C@@H]1O[C@H](COP(=O)(O)OP(=O)(O)OP(=O)(O)O)[C@@H](O)[C@H]1O [ATP, adenosine triphosphate]
- competition effect on probe labeling (fluorescence of labeled bands) [2]: non-specific competition

SMILES: Nc1nc2c(ncn2[C@@H]2O[C@H](COP(=O)([O-])[O-])[C@@H](O)[C@H]2O)c(=O)[nH]1.[Na+].[Na+] [GMP, guanosine 5′-monophosphate disodium salt]
- competition effect on probe labeling (fluorescence of labeled bands) [2]: non-specific competition

SMILES: Nc1nc2c(ncn2[C@@H]2O[C@H](COP(=O)(O)OP(=O)(O)OP(=O)(O)O)[C@@H](O)[C@H]2O)c(=O)[nH]1 [GTP, guanosine triphosphate]
- competition effect on probe labeling (fluorescence of labeled bands) [2]: significantly decrease the fluorescence intensity of several labeled proteins bands

SMILES: C#CCCC1(CCOP(=O)(O)OP(=O)(O)OP(=O)(O)OC[C@H]2O[C@@H](n3cnc4c(=O)[nH]c(N)nc43)C(O)[C@H]2O)N=N1 (stereo partly shown) [GTP-O probe]
- probe-modified sites on labeled proteins ([3]; LC-MS/MS of sample 2 (probe-modified peptides)): not detected
- GTP-binding proteins identified [3, 4]: 95
- total proteins identified [3, 4]: 1808
